How the values were obtained:
Assay type in all cases: functional
[1] = system: MDA-MB-468; experiment: Cytotoxicity against human MDA-MB-468 cells assessed as cellular growth at 10 uM by SRB assay
[2] = system: PC-3; experiment: Cytotoxicity against human PC3 cells assessed as cellular growth at 10 uM by SRB assay
[3] = system: TK-10; experiment: Cytotoxicity against human TK10 cells assessed as cellular growth at 10 uM by SRB assay
[4] = system: RXF 393; experiment: Cytotoxicity against human RXF393 cells assessed as cellular growth at 10 uM by SRB assay
[5] = system: CAKI-1; experiment: Cytotoxicity against human Caki1 cells assessed as cellular growth at 10 uM by SRB assay
[6] = system: 786-0; experiment: Cytotoxicity against human 786-0 cells assessed as cellular growth at 10 uM by SRB assay
[7] = Cytotoxicity against human NCI-ADR-RES cells assessed as cellular growth at 10 uM by SRB assay
[8] = system: SK-MEL-2; experiment: Cytotoxicity against human SK-MEL-2 cells assessed as cellular growth at 10 uM by SRB assay
[9] = system: LOX IMVI; experiment: Cytotoxicity against human LOXIMVI cells assessed as cellular growth at 10 uM by SRB assay
[10] = system: SNB-19; experiment: Cytotoxicity against human SNB19 cells assessed as cellular growth at 10 uM by SRB assay
[11] = system: SF-539; experiment: Cytotoxicity against human SF539 cells assessed as cellular growth at 10 uM by SRB assay
[12] = system: SF-295; experiment: Cytotoxicity against human SF295 cells assessed as cellular growth at 10 uM by SRB assay
[13] = system: SW-620; experiment: Cytotoxicity against human SW620 cells assessed as cellular growth at 10 uM by SRB assay
[14] = system: KM12; experiment: Cytotoxicity against human KM12 cells assessed as cellular growth at 10 uM by SRB assay
[15] = system: HCT-15; experiment: Cytotoxicity against human HCT15 cells assessed as cellular growth at 10 uM by SRB assay
[16] = system: NCI-H522; experiment: Cytotoxicity against human NCI-H522 cells assessed as cellular growth at 10 uM by SRB assay
[17] = system: NCI-H460; experiment: Cytotoxicity against human NCI-H460 cells assessed as cellular growth at 10 uM by SRB assay
[18] = system: NCI-H226; experiment: Cytotoxicity against human NCI-H226 cells assessed as cellular growth at 10 uM by SRB assay
[19] = system: K562; experiment: Cytotoxicity against human K562 cells assessed as cellular growth at 10 uM by SRB assay
[20] = system: HL-60(TB); experiment: Cytotoxicity against human HL-60(TB) cells assessed as cellular growth at 10 uM by SRB assay

Compound	Activity [1]	Activity [2]	Activity [3]	Activity [4]	Activity [5]	Activity [6]	Activity [7]	Activity [8]	Activity [9]	Activity [10]	Activity [11]	Activity [12]	Activity [13]	Activity [14]	Activity [15]	Activity [16]	Activity [17]	Activity [18]	Activity [19]	Activity [20]
O=c1/c(=C/c2ccc(Cl)cc2Cl)sc2nc(-c3ccccc3)nn12	112.09%	106.44%	106%	121.72%	116.76%	103.31%	112.24%	107.26%	95.09%	102.51%	121.38%	118.28%	107.15%	101.32%	100.58%	98.76%	106.83%	98.92%	98.67%	91.7%
Nc1c(C(=O)Nc2ccccc2)sc2nc3c(cc12)C(=O)CCC3	4.62%	21.62%	63.62%	-9.9%	54.68%	36.19%	-6.39%	38.68%	51.19%	36.05%	0.84%	-12.42%	27.25%	19.9%	27.18%	-33.85%	12.88%	68%	17.06%	19.38%
N#Cc1ccc(NC(=O)c2sc3nc4c(cc3c2N)C(=O)CCC4)cc1	97.58%	106.64%	65.94%	119.14%	93.27%	97.81%	105.72%	83%	111.96%	101.84%	99.77%	82.4%	98.14%	101.12%	100.78%	102.85%	85.91%	93.7%	108.42%	81.02%
Cc1cccc(-c2nc(-c3cccs3)no2)c1	40.25%	80.3%	68.05%	126.03%	77.92%	93.47%	95.15%	100.25%	95.98%	106.75%	115.88%	91.28%	90.68%	104.19%	83.75%	90.03%	94.9%	94.62%	94.59%	96%
Cc1cc(C)c(NC(=O)c2sc3nc4c(cc3c2N)C(=O)CCC4)c(C)c1	-27.16%	23.46%	44.75%	-6.65%	-22.19%	30.39%	-8.04%	36.14%	50.61%	40.22%	-6.5%	-11.34%	15.59%	27.28%	31.78%	-14.71%	6.43%	77.05%	19.79%	14.55%
O=c1/c(=C/c2ccccc2Cl)sc2nc(-c3ccccc3)nn12	96.99%	72.09%	123.92%	99.76%	98.22%	101.12%	90.47%	100.14%	63.33%	90.58%	94.89%	99.98%	107.46%	89.57%	79.8%	85.92%	99.8%	100.04%	48.93%	66.88%
O=C(NCCc1ccccc1)c1[nH]c2ccccc2c1Cl	64.9%	70.3%	154.81%	103.44%	78.12%	102.69%	87.28%	129.02%	89.47%	99.04%	102.52%	82.28%	92.61%	72.97%	86.01%	96.12%	89.75%	73.27%	74.92%	90.02%
COc1cc(/C=c2/sc3nc4ccccc4n3c2=O)cc(I)c1O	71.12%	95.27%	116.5%	116.35%	79.77%	97.48%	92.89%	104.64%	93.01%	108.08%	112.47%	88.17%	93.08%	80.63%	91.48%	99.27%	95.07%	94.19%	51.46%	81.81%
Cc1ccc(NC(=O)c2sc3nc(-c4cccs4)ccc3c2N)cc1C	44.79%	101.43%	87%	123.31%	131.91%	105.46%	102.93%	82.1%	101.98%	111.2%	118.53%	110.27%	101.23%	106.51%	109.09%	100.77%	98.65%	107.93%	90.31%	82.68%
CC1(C)CC(=O)c2cc3c(N)c(C(=O)NCc4ccccc4)sc3nc2C1	93.1%	95.51%	106.71%	93.07%	110.35%	109.38%	93.37%	114.95%	102.22%	108.68%	96.57%	100.81%	111.03%	105.75%	100.56%	92.67%	101.02%	86.42%	117.84%	120.86%
O=C(Nc1nc2ccc(Cl)cc2s1)c1ccc(Cl)cc1Cl	105.42%	97.1%	88.34%	112.15%	79.85%	95.62%	98.55%	116.07%	98.46%	109.5%	101.57%	76.92%	111.18%	110.91%	100.27%	98.66%	100.4%	101.52%	86.31%	92.55%
O=C(Nc1nc2ccccc2s1)c1ccc(F)cc1	94.15%	96.56%	125.36%	106.77%	62.93%	107.84%	95.74%	113.78%	100.61%	126.08%	101.66%	103.39%	112.1%	52.84%	85.53%	92.24%	69.18%	92.69%	89.96%	111.31%
COc1ccc2[nH]c(C(=O)NCc3ccccc3)cc2c1	99.1%	102.32%	120.94%	101.97%	87.15%	103.19%	102.25%	108.1%	103.84%	101.29%	101.58%	131.65%	107.28%	111.34%	94.58%	90.46%	110.92%	96.37%	92.68%	95.91%
O=C(NCc1ccc(Cl)cc1)c1[nH]c2ccccc2c1Cl	106.81%	87.3%	163.4%	104.01%	91.63%	106.78%	95.94%	111.13%	95.45%	108.55%	118.51%	94.4%	98.38%	95.16%	103.64%	103.35%	99.81%	89.64%	102.78%	109.59%
O=C(NCCc1ccccc1)c1cc2cccc([N+](=O)[O-])c2[nH]1	90.5%	77.13%	102.94%	105.34%	87.57%	105.28%	97.02%	101.4%	85.8%	97.53%	103.09%	92.52%	108.15%	106.02%	86.79%	84.92%	101.23%	82.38%	82.43%	114.53%
CC1(C)CCc2cc(-c3ccn(S(=O)(=O)c4cccc(C(F)(F)F)c4)n3)ccc2O1	67.07%	88.93%	82.31%	97.2%	105.83%	85.72%	88.98%	107.75%	92.84%	103.83%	116.68%	108.32%	88.93%	98.53%	89.34%	87.1%	90%	90.51%	63.16%	72.67%

— ChEMBL document CHEMBL2202954, “The effect of PLC-γ2 inhibitors on the growth of human tumour cells” (2012)
